Experimental data as given in patent US5962456A, “N-acylpiperazine derivative, anti-ulcer drug, and antibacterial drug” (Shiseido Co., Ltd., priority 1996, dated 1999).

Legend:
[1] = test system: isolated gastric fundic gland; assay: CAP: Acid Secretion Inhibition Test In Vitro ([14C]-aminopyrine uptake); format: cell-based, rabbit (male Japanese White); details: final concentration 10^-5 M, histamine 10^-5 M, rabbit gastric fundic glands; for inhibition at 10 µM: Oryctolagus cuniculus, read-out: CAP acid secretion inhibitory rate
Method: CAP: Acid Secretion Inhibition Test In Vitro
The acid secretion inhibitory activity in a cell level is studied. It can also be used for studying the mechanism of the effect. […]
ii-a) Preparation of Isolated Gastric Fundus Gland Suspension
First, an isolated gastric fundic gland sample was prepared. Namely, a male Japanese White rabbit (2.5 to 3 kg) was anesthetized to death with Nembutal™ and then the abdomen was incised. Immediately thereafter, the stomach was removed and, after its pyloric and cardiac antrum were severed, incised along its greater curvature into two sheets. The gastric contents adhering to the mucosal surface was washed out with ice-cooled PBS (-) and then carefully washed therein. The gastric wall was spread on a cork board with its mucosal surface facing up and the feed and mucus thereon were completely removed with sterile gauze. The mucosa was separated therefrom by a spatula and then collected in ice-cooled PBS (-). After being washed twice with PBS (-), the mucosa was minced into 2-3 mm^3 pieces by scissors. These pieces were further washed twice with a nutrient solution. […] Into 70 ml of the nutrient solution containing 1 mg/ml of collagenase, minced mucosal pieces were dispersed and intensely stirred in a conical flask with a stirrer at 37° C. for 40 to 60 minutes. During this period, 100% O2 was sprayed on the nutrient solution surface and the pH was appropriately measured such that it was immediately adjusted to pH 7.4, when the value was therebelow, with a base. The nutrient solution was added to the reaction solution so as to attain the total amount of about 200 ml. After being filtered through a mesh, the suspension was divisionally introduced into 50 ml centrifuge tubes and left for 15 minutes such that gastric fundic gland was deposited. The supernatant was repeatedly removed by an aspirator, dispersed in the nutrient solution, and then left such that the gastric fundic gland was washed three times. At this time, without using a pipette, the suspension was alternately introduced into two centrifuge tubes so as to effect dispersion. The number of cells was counted under microscope and adjusted to 1.6×10^6 cells/ml. […]
ii-b) [^14 C]-aminopyrine Uptake Test
Then, [^14 C]-aminopyrine uptake test was performed. After an Eppendorf tube was weighed, 10 μl (final concentration: 10^-5 M) of histamine dissolved in the above-mentioned nutrient solution, 10 μl (final concentration: 10^-5 M) of the test compound dissolved in DMSO, and 10 μl (final concentration: 0.05 μCi/ml) of [^14 C]-aminopyrine diluted with the nutrient solution were introduced therein and then 970 μl of the isolated gastric fundic gland suspension prepared above was added thereto. […] After being centrifuged for 30 minutes, 200 μl of its supernatant was collected into a mini-vial, while the rest was removed by an aspirator. The gland pellet was completely dried as the tube with its lid being opened was kept for one night in a drying oven at 80° C. and then the lid was closed and the weight was determined at room temperature. Then 100 μl of 1N KOH was added thereto and the tube with its lid being closed was treated at 60° C. for 1 to 2 hours so as to dissolve the pellet. Then, the contents thereof were transferred to a mini-vial. Into the mini-vial containing the supernatant or gland pellet, 4 ml of Atomlite™ was added and then the radioactivity was measured by a liquid scintillation counter. Here, after the radioactivity of the gland pellet was corrected by using a sample in which 20 mM of NaSCN was added so as to cancel the hydrogen ion concentration gradient, the integration ratio of aminopyrine specifically trapped by the gland pellet was calculated. This experiment was performed in duplicate. […]
ii-c) Calculation of the Accumulation Rate of Aminopyrine
Here, its principle will be briefly explained. In the isolated gastric fundic gland, acid is accumulated in a space between its secretory tubule and intraglandular cavity.

Helicobacter pyroli = assay: AHP: Antibacterial Activity Test Against Helicobacter pyroli (agar dilution); format: cell-based, HP NCTC 11637; details: for MIC: Helicobacter, NCTC11637, 168 h, HP NCTC 11637, agar dilution, 7 days, read-out: AHP minimum inhibitory concentration (MIC); for AHP antibacterial activity, colony number relative to control plate: MIC 100 μg/ml or more, plate with 250 mM solution of the sample compound
Method: AHP: Antibacterial Activity Test Against Helicobacter pyroli i) Meaning The minimum inhibitory concentration (MIC) against Helicobacter pyroli (microaerophilic gram-negative bacterium which is supposed to deeply involve in pathogenesis, relapse, and recrudescence of ulcer, referred to as "HP" in the following) is measured so as to find out compounds which have antimicrobial activity against Helicobacter pyroli. ii) Method MICs were determined by the agar dilution method. The stock culture (-80° C.) of HP NCTC 11637 was thawed and cultured on tripticase soy agar supplemented with 5% sheep blood at 37° C. in an atmosphere of 5% O2, 10% CO2, and 85% N2. Grown colonies were transferred to the same plate and precultured for 3 days under the same condition. […] 10 μl of the bacterial suspension for inoculation (about 10^3 cfu) was inoculated on this plate and cultured for 7 days under the same condition as that of preculture. […] As the result of the comparison of these plates, when the number of the colony on the plate containing the sample compound was less than 90% with respect to that on the control plate, it was represented by "+". Contrary to this, when there was 90% or more, it was represented by "-".

[2] = MTT: Cell Damaging and Protecting Effect Test; format: cell-based, rabbit (male Japanese White); details: rabbit, gastric corpus mucosa cells, final concentration 10^-4 M, smaller value is better, read-out: MTT cell damaging rate
Text: (§1) MTT: Cell Damaging and Protecting Effect Test
(§2) It is confirmed that there is no toxicity in cell level. Those having a toxicity in cell level are inappropriate as an anti-ulcer drug.
(§3) A male Japanese White rabbit (2.5 to 3 kg) was anesthetized to death by Nembutal™ and, immediately thereafter, its stomach was removed. The greater curvature of the stomach was incised so as to remove the stomach contents therefrom. After the mucosal surface was washed with HBSS (Hanks' Balanced Salt Solution), the stomach in ice-cooled HBSS was transferred to a laboratory. Then, after the pyloric antrum was removed, the gastric corpus mucosa was separated by a spatula and then minced into 2 to 3 mm^3 pieces in BME (Basal Medium Eagle). Thereafter, these pieces were shaken at 120 to 130 cycles/minute for 15 minutes at 37° C. in BME 60 ml containing 280 U/ml of dispase and 30 to 50 U/ml of collagenase. Here, the concentration of collagenase was appropriately changed for each lot in view of the state of cells. The pieces were washed twice with EBSS (Earle's Balanced Salt Solution) containing 1 mM of EDTA and then shaken in MEM (Minimum Essential Medium) containing 1 mM of EDTA at 37° C. for 5 minutes. Subsequently, they were shaken in the dispase and collagenase having the same concentrations as those mentioned above for 15 minutes so as to remove the supernatant and then further shaken at 37° C. for 50 to 60 minutes at 120 to 130 cycles/minute. Then, after being washed twice with HBSS, Ham F12 containing 2% of Ultrocer G™ was used to attain the concentration of 1×10^6 cells/ml. Thus formed suspension was dispensed in each well of a 96-well plate by 200 μl. The plate was incubated in the atmosphere composed of 5% CO2 and 95% air at 37° C. for three days so as to attain a confluent state and then subjected to MTT assay.
(§4) The sample compound was dissolved in DMSO so as to attain a concentration of 10^-2 M and then diluted with HBSS containing 2% of Ultrocer G™ so as to attain a final concentration of 10^-4 M. To each group, which 8 wells were used for, 10 μl of MTT reagent was added immediately after 100 μl of the medium in each well was exchanged for same volume of the resulting solution of the sample compound. After being incubated in an atmosphere composed of 5% CO2 and 95% air at 37° C. for 4 hours, thus formed solution was centrifuged and then its supernatant was discarded. Subsequently, 100 μl of 100% ethanol was added to the residue so as to dissolve MTT formazan. Then, the absorbance (OD: 570 to 630) was measured by a microplate reader. This method utilizes a phenomenon in which MTT is changed to MTT formazan only by mitochondria of living cells so as to change color.
(§5) The cell damaging or cell protecting effect of the sample compound at the final concentration of 10^-4 M was expressed as cell damaging rate (%) as follows:
(§6) cell damaging rate (%)=(1-(absorbance in sample group/absorbance in control group))×100
(§7) Accordingly, the smaller rate value is better in the cell damage.

[3] = test system: gastric corpus mucosa cells; assay: MTT: Cell Damaging and Protecting Effect Test; format: cell-based, rabbit (male Japanese White); details: final concentration 10^-4 M, 4 hours; smaller value is better; 100 µM
Text: as §1, §2, §3, §4, §5, §6, §7

mice = details: mouse, in vivo
Method: AT: Single Dose Toxicity Pretest
Male Slc:ICR mice (5-week-old) were used. Each group has 3 to 5 mice and each mouse was fasted, but allowed free access to water, for 4 to 5 hours from 9 a.m. in the test day. Then, 2,000 mg/10 ml/kg of the sample compound dissolved or suspended in an aqueous solution of 0.5% sodium carboxymethyl cellulose was orally administered thereto. To a control, only the vehicle was administered. […] The body weight was measured before and after the fasting as well as at the same time everyday. The dead animals were immediately subjected to autopsy and their organs were observed microscopically. Also, the living animals were sacrificed with ether or carbon dioxide one week after the administration and then their organs were observed microscopically.
The toxicity at the single dose of 2,000 mg/kg of the sample compound was expressed as being classified into 5 levels.
5: Mortality rate is 0%; no toxicity is found at all both in behavior and organs.
4: Mortality rate is 0%; while no toxicity is found in organs, slight toxicity is observed in behavior and body weight increase.
3: While there is a dead animal (though not all the animals are dead), no toxicity is found in organs.
2: Regardless of whether there is a dead animal or not, toxicity is found in organs.
1: All the animals are dead.

stress ulcer = assay: WIS: Restraint and Water Immersion Stress-Induced Ulcer Inhibition Test; format: in vivo, rat (male Crj:SD or Slc:SD); details: 100 mg/kg oral, rats, 7 hours restraint and water immersion (21° C.)
Method: WIS: Restraint and Water Immersion Stress-Induced Ulcer Inhibition Test
The degree of inhibition of the stress ulcer formation is tested.
Male Crj:SD or Slc:SD rats (6 to 7-week-old) were fasted overnight, but allowed free access to water. Each group has 5 to 8 of these rats. […] To a control group, the vehicle was administered. 10 minutes later, the rats were placed in a stress cage and immersed to the level of xipfoid process in a water bath (21° C.) for 7 hours. At the end of the stress, the rats were sacrificed by inhalation of ether or carbon dioxide. Then, the stomach of each was removed, inflated by injecting 10 ml of 5% formalin neutral buffer solution, and immersed in 1% formalin neutral buffer solution for 30 minutes or more to be fixed. The stomach was incised along the greater curvature and then the length of each erosion in the glandular portion was determined under dissecting microscope. The sum of the length of erosions per stomach was defined as ulcer index (UI).
The effect obtained when 100 mg/kg of the sample compound had been administered was expressed as ulcer formation inhibitory rate (%) as follows:
ulcer formation inhibitory rate (%)=(1-(UI in sample group/UI in control group))×100

Q: Which results are given for `CC(C)Cc1cccc(C(=O)N2CCN(Cc3ccc4c(c3)OCO4)CC2)c1O` [Example 11]?
A: inhibition at 10 µM [1]: 93.1%; MIC (Helicobacter pyroli): < 3.13 µg/mL; cytotoxicity at 4 h, 100 µM [2]: 5%

Q: Which results are given for `COc1cc(C(=O)N2CCN(Cc3ccccc3)CC2)cc(OC)c1OC/C=C(\C)CCC=C(C)C` [Example 5, 1-benzyl-4-(3,5-dimethoxy-4-geranyloxy)benzoylpiperazine]?
A: inhibition at 10 µM [1]: 99.2%; AHP antibacterial activity, colony number relative to control plate (Helicobacter pyroli): + (the number of the colony on the plate containing the sample compound was less than 90% with respect to that on the control plate); cytotoxicity at 4 h, 100 µM [2]: -50%

Q: With `COc1cc(C(=O)N2CCN(Cc3ccccc3)CC2)cc(OC/C=C(\C)CCC=C(C)C)c1OC` [Example 7, 1-benzyl-4-(3,4-dimethoxy-5-geranyloxy)benzoylpiperazine] as the molecule, how does the inhibition at 10 µM [1] read?
A: 99.6%

Q: And the cytotoxicity at 4 h, 100 µM [2]?
A: -44%

Q: For `CC(C)Cc1cc(C(=O)N2CCN(C(=O)NC(C)C)CC2)ccc1OCc1ccc(F)cc1` [Example 8, 1-[4-(4-fluorobenzyloxy)-3-isobutyl]benzoyl-4-(N-isopropylcarbamoyl)piperazine], which inhibition at 10 µM [1] is on record?
A: 36.9%

Q: And the MIC (Helicobacter pyroli)?
A: < 3.13 µg/mL

Q: And the cytotoxicity at 4 h, 100 µM [2]?
A: -93%

Q: Which results are given for `CC(C)Cc1ccc(C(=O)N2CCN(C(c3ccccc3)c3ccccc3)CC2)cc1O` [Example 12, 1-diphenylmethyl-4-(3-hydroxy-4-isobutyl)benzoylpiperazine]?
A: inhibition at 10 µM [1]: 41.9%; AHP antibacterial activity, colony number relative to control plate (Helicobacter pyroli): + (the number of the colony on the plate containing the sample compound was less than 90% with respect to that on the control plate); cytotoxicity at 4 h, 100 µM [2]: -12%

Q: For `CC(C)=CCC/C(C)=C/COc1ccc(C(=O)N2CCN(CCNC(=O)c3ccc4c(c3)OCO4)CC2)cc1CC(C)C` [Example 2, 1-(4-geranyloxy-3-isobutyl)benzoyl-4-[2-(piperonyloylamino)ethyl]piperazin], which “CAP acid secretion inhibitory rate” value [1] is on record?
A: 99.4%

Q: What about the “MTT cell damaging rate” value [3] of the same molecule?
A: 22%

Q: With `CC(C)Cc1cc(C(=O)N2CCN(Cc3ccccc3)CC2)ccc1OCc1ccccc1` [Example 9, 1-(4-benzyloxy-3-isobutyl)benzoyl-4-benzylpiperazine] as the molecule, how does the inhibition at 10 µM [1] read?
A: 94.6%

Q: And the “AHP antibacterial activity, colony number relative to control plate” value (Helicobacter pyroli)?
A: + (the number of the colony on the plate containing the sample compound was less than 90% with respect to that on the control plate)

Q: And the cytotoxicity at 4 h, 100 µM [2]?
A: -32%

Q: For `CC(C)=CCC/C(C)=C/COc1ccc(C(=O)N2CCN(CCOC(=O)c3ccncc3)CC2)cc1` [Example 3, 1-(4-geranyloxy)benzoyl-4-(2-isonicotinoyloxyethyl)piperazine], which inhibition at 10 µM [1] is on record?
A: 101%

Q: What about the cytotoxicity at 4 h, 100 µM [2] of the same molecule?
A: -24%

Q: Which inhibition at 10 µM [1] does the source give for `CC(C)Cc1cc(C(=O)N2CCN(c3ccccn3)CC2)ccc1OCc1ccc(F)cc1` [Example 10, 1-[4-(4-fluorobenzyloxy)-3-isobutyl]benzoyl-4-(2-pyridyl) piperazine] here?
A: 96%

Q: And the cytotoxicity at 4 h, 100 µM [2]?
A: -34%

Q: What about the “AT single dose toxicity level” value (mice) of the same molecule?
A: 5

Q: Which inhibition at 10 µM [1] does the source give for `CC(C)=CCOc1cc(C(=O)N2CCN(Cc3ccccc3)CC2)cc(OCC=C(C)C)c1OCC=C(C)C` [Example 6, 1-benzyl-4-(3,4,5-triprenyloxy)benzoylpiperazine] here?
A: 99.5%

Q: And the cytotoxicity at 4 h, 100 µM [2]?
A: -16%

Q: For `CC(C)=CCC/C(C)=C/COc1ccc(C(=O)N2CCN(Cc3ccc4c(c3)OCO4)CC2)cc1` [Example 4, 1-(4-geranyloxy)benzoyl-4-piperonylpiperazine], which “WIS ulcer formation inhibitory rate” value (stress ulcer) is on record?
A: 43%

Q: And the “AHP antibacterial activity, colony number relative to control plate” value (Helicobacter pyroli)?
A: + (the number of the colony on the plate containing the sample compound was less than 90% with respect to that on the control plate)

Q: What about the cytotoxicity at 4 h, 100 µM [2] of the same molecule?
A: -29%
